US9073830B2 (Hyundai Pharm Co., Ltd., priority 2011, dated 2015)

What was measured:
human 11β-HSD1 = target: T1, human 11β-HSD1 (Homo sapiens, UniProt P28845); assay: Enzyme activity analysis on human 11β-HSD1 (HTRF cortisol, liver microsomes); format: biochemical; details: first value of cell
T1 construct: 100 ug/ml human/mouse liver microsomes; from tissue; host or cells: human liver microsomes
Method: (§1) After culturing at 37° C. for 2 hours, 5 μl of cryptate-labeled anti-cortisol antibody and 5 μl of d2-labeled cortisol were added thereto. After further culturing at room temperature for 2 hours, a homogeneous time-resolved fluorescence (HTRF, Cisbio) signal was measured. From each analysis, based on a standard curve calculated using cortisols of several known concentrations, an amount of produced cortisol was tested.
(§2) While an amount of cortisol, produced without the compound, was used as a control, an inhibition percentage by the test compound, at each concentration, was calculated. By using an inhibition curve calculated by coordinates of inhibition percentage to test compound concentration, an IC50 value of the compound on 11β-HSD1 was obtained.

mouse 11β-HSD1 = target: T2, mouse 11β-HSD1 (Mus musculus, UniProt P50172); assay: Enzyme activity analysis on mouse 11β-HSD1 (HTRF cortisol, liver microsomes); format: biochemical; details: second value of cell
T2 construct: 100 ug/ml human/mouse liver microsomes; from tissue; host or cells: mouse liver microsomes
Method: as §1, §2

T2 sequence (P50172 whole entry): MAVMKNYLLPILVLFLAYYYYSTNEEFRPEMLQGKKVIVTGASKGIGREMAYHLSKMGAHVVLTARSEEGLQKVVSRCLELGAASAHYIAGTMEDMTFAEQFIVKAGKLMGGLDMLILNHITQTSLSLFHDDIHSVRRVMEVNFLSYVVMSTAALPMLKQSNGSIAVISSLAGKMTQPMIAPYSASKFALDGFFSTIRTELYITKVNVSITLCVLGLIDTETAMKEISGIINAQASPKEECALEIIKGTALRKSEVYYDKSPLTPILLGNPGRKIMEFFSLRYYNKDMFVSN
T1 sequence (P28845 whole entry): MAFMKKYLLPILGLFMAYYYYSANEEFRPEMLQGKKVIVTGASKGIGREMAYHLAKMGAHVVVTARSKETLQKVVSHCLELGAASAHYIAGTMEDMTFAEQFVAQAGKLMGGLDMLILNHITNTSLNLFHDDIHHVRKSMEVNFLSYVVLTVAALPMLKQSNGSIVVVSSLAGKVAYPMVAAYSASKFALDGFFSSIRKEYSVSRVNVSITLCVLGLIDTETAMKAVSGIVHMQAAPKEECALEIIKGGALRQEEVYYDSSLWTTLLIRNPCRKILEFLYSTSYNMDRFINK

SMILES | IC50 (human 11β-HSD1) [µM] | IC50 (mouse 11β-HSD1) [µM]
CC(C)(NS(=O)(=O)c1ccc(C(F)(F)F)cc1)C(=O)NC1C2CC3CC(C2)CC1C3 (stereo not drawn) [compound 37, N-(adamantane-2-yl)-2-methyl-2-(4-trifluoromethylphenylsulfonamido)propanamide] | > 2.5 | > 2.5
CC(=O)c1ccc(S(=O)(=O)NC(C)(C)C(=O)NC2C3CC4CC(C3)CC2C4)cc1 (stereo not drawn) [compound 38, N-(adamantane-2-yl)-2-methyl-2-(4-acetylphenylsulfonamido)propanamide] | 0.829 | 0.847
Cc1cc(F)ccc1S(=O)(=O)NC(C)(C)C(=O)NC1C2CC3CC(C2)CC1C3 (stereo not drawn) [compound 39, N-(adamantane-2-yl)-2-methyl-2-(4-fluoro-2-methylphenylsulfonamido)propanamide] | 0.043 | 0.561
Cc1ccc([N+](=O)[O-])cc1S(=O)(=O)NC(C)(C)C(=O)NC1C2CC3CC(C2)CC1C3 (stereo not drawn) [compound 40, N-(adamantane-2-yl)-2-methyl-2-(5-nitro-2-methylphenylsulfonamido)propanamide] | 0.098 | 1.85
CC(C)(NS(=O)(=O)c1c(F)cccc1F)C(=O)NC1C2CC3CC(C2)CC1C3 (stereo not drawn) [compound 41, N-(adamantane-2-yl)-2-methyl-2-(2,6-difluorophenylsulfonamido)propanamide] | 0.041 | 0.156
CC(C)(NS(=O)(=O)c1ccc(-c2ccccc2)cc1)C(=O)NC1C2CC3CC(C2)CC1C3 (stereo not drawn) [compound 42, N-(adamantane-2-yl)-2-methyl-2-([1,1-biphenyl]-4-ylsulfonamido)propanamide] | 1.8 | 1.7
CC(C)(NS(=O)(=O)c1ccc(C(=O)NC2C3CC4CC(C3)CC2C4)cc1Cl)C(=O)NC1C2CC3CC(C2)CC1C3 (stereo not drawn) [compound 44] | 0.481 | 0.167
CC(C)(NS(=O)(=O)c1c(Cl)cccc1Cl)C(=O)NC1C2CC3CC(C2)CC1C3 (stereo not drawn) [compound 45, N-(adamantane-2-yl)-2-methyl-2-(2,6-dichlorophenylsulfonamido)propanamide] | 0.009 | 0.02
CC(C)(NS(=O)(=O)c1ccc(Cl)cc1Cl)C(=O)NC1C2CC3CC(C2)CC1C3 (stereo not drawn) [compound 46, N-(adamantane-2-yl)-2-methyl-2-(2,4-dichlorophenylsulfonamido)propanamide] | 0.105 | 0.621
COc1ccc(S(=O)(=O)NC(C)(C)C(=O)NC2C3CC4CC(C3)CC2C4)c(OC)c1 (stereo not drawn) [compound 47, N-(adamantane-2-yl)-2-methyl-2-(2,4-dimethoxyphenylsulfonamido)propanamide] | 0.082 | 1.92
COc1ccc(OC)c(S(=O)(=O)NC(C)(C)C(=O)NC2C3CC4CC(C3)CC2C4)c1 (stereo not drawn) [compound 48, N-(adamantane-2-yl)-2-methyl-2-(2,5-dimethoxyphenylsulfonamido)propanamide] | 0.02 | 1.83
CC(C)(NS(=O)(=O)c1cc(C(F)(F)F)cc(C(F)(F)F)c1)C(=O)NC1C2CC3CC(C2)CC1C3 (stereo not drawn) [compound 49, N-(adamantane-2-yl)-2-methyl-2-(3,5-ditrifluoromethylphenylsulfonamido)propanamide] | 1.35 | > 2.5
CC(C)(NS(=O)(=O)c1cccnc1Cl)C(=O)NC1C2CC3CC(C2)CC1C3 (stereo not drawn) [compound 50, N-(adamantane-2-yl)-2-methyl-2-(2-chloropyridine-3-sulfonamido)propanamide] | 0.105 | 0.292
CC(C)(NS(=O)(=O)c1ccc(Cl)c(Cl)c1Cl)C(=O)NC1C2CC3CC(C2)CC1C3 (stereo not drawn) [compound 51, N-(adamantane-2-yl)-2-methyl-2-(2,3,4-trichlorophenylsulfonamido)propanamide] | 0.183 | 1.3
CC(C)(NS(=O)(=O)CCc1cccc2ccccc12)C(=O)NC1C2CC3CC(C2)CC1C3 (stereo not drawn) [compound 52, N-(adamantane-2-yl)-2-methyl-2-(2-(naphthalene-1-yl)ethylsulfonamido)propanamide] | 1.17 | 2.14
CCc1ccc(S(=O)(=O)NC(C)(C)C(=O)NC2C3CC4CC(C3)CC2C4)cc1 (stereo not drawn) [compound 53, N-(adamantane-2-yl)-2-methyl-2-(4-ethylphenylsulfonamido)propanamide] | 0.21 | 0.673
CC(C)(NS(=O)(=O)c1ccc(F)c(Cl)c1)C(=O)NC1C2CC3CC(C2)CC1C3 (stereo not drawn) [compound 54, N-(adamantane-2-yl)-2-methyl-2-(4-fluoro-3-chlorophenylsulfonamido)propanamide] | 0.223 | 0.904
CC(C)(NS(=O)(=O)c1ccc(F)cc1Cl)C(=O)NC1C2CC3CC(C2)CC1C3 (stereo not drawn) [compound 55, N-(adamantane-2-yl)-2-methyl-2-(4-fluoro-2-chlorophenylsulfonamido)propanamide] | 0.039 | 0.186

SMILES | IC50 (human 11β-HSD1) [µM] | IC50 (mouse 11β-HSD1) [µM]
CC(C)(NS(=O)(=O)c1ccccc1C(N)=O)C(=O)NC1C2CC3CC(C2)CC1C3 (stereo not drawn) [compound 56] | 0.532 | > 2.5
CC(C)c1ccc(S(=O)(=O)NC(C)(C)C(=O)NC2C3CC4CC(C3)CC2C4)cc1 (stereo not drawn) [compound 57, N-(adamantane-2-yl)-2-methyl-2-(4-isopropylphenylsulfonamido)propanamide] | 1.04 | 1.32
CC(C)(NS(=O)(=O)c1ccc(F)cc1F)C(=O)NC1C2CC3CC(C2)CC1C3 (stereo not drawn) [compound 58, N-(adamantane-2-yl)-2-methyl-2-(2,4-difluorophenylsulfonamido)propanamide] | 0.199 | 0.621
Cc1cc(C)cc(S(=O)(=O)NC(C)(C)C(=O)NC2C3CC4CC(C3)CC2C4)c1 (stereo not drawn) [compound 59, N-(adamantane-2-yl)-2-methyl-2-(3,5-dimethylphenylsulfonamido)propanamide] | 0.331 | 1.21
COc1cc([N+](=O)[O-])ccc1S(=O)(=O)NC(C)(C)C(=O)NC1C2CC3CC(C2)CC1C3 (stereo not drawn) [compound 60, N-(adamantane-2-yl)-2-methyl-2-(4-nitro-2-methoxyphenylsulfonamido)propanamide] | 0.135 | 0.644
CC(C)(NS(=O)(=O)c1ccc(Cl)c([N+](=O)[O-])c1)C(=O)NC1C2CC3CC(C2)CC1C3 (stereo not drawn) [compound 61, N-(adamantane-2-yl)-2-methyl-2-(4-chloro-3-nitrophenylsulfonamido)propanamide] | > 2.5 | > 2.5
Cc1ccc(S(=O)(=O)NC(C)(C)C(=O)NC2C3CC4CC(C3)CC2C4)cc1Cl (stereo not drawn) [compound 62, N-(adamantane-2-yl)-2-methyl-2-(4-methyl-3-chlorophenylsulfonamido)propanamide] | 0.215 | 0.686
CC(C)(NS(=O)(=O)Cc1ccccc1)C(=O)NC1C2CC3CC(C2)CC1C3 (stereo not drawn) [compound 63, N-(adamantane-2-yl)-2-methyl-2-(phenylmethylsulfonamido)propanamide] | 0.039 | 0.283
CC(C)(NS(=O)(=O)c1cccc(Br)c1)C(=O)NC1C2CC3CC(C2)CC1C3 (stereo not drawn) [compound 64, N-(adamantane-2-yl)-2-methyl-2-(3-bromophenylsulfonamido)propanamide] | 0.433 | 1.02
CC(C)(NS(=O)(=O)c1ccc(Br)cc1)C(=O)NC1C2CC3CC(C2)CC1C3 (stereo not drawn) [compound 65, N-(adamantane-2-yl)-2-methyl-2-(4-bromophenylsulfonamido)propanamide] | 0.996 | 1.65
CC(C)(NS(=O)(=O)c1cccc([N+](=O)[O-])c1)C(=O)NC1C2CC3CC(C2)CC1C3 (stereo not drawn) [compound 66, N-(adamantane-2-yl)-2-methyl-2-(3-nitrophenylsulfonamido)propanamide] | 0.511 | 0.914
CCCc1ccc(S(=O)(=O)NC(C)(C)C(=O)NC2C3CC4CC(C3)CC2C4)cc1 (stereo not drawn) [compound 67, N-(adamantane-2-yl)-2-methyl-2-(4-propylphenylsulfonamido)propanamide] | 1.29 | 1.26
COc1ccc(S(=O)(=O)NC(C)(C)C(=O)NC2C3CC4CC(C3)CC2C4)cc1[N+](=O)[O-] (stereo not drawn) [compound 68, N-(adamantane-2-yl)-2-methyl-2-(4-methoxy-3-nitrophenylsulfonamido)propanamide] | 1.2 | 1.12
CC(C)(NS(=O)(=O)c1ccccc1F)C(=O)NC1C2CC3CC1CC(O)(C3)C2 (stereo not drawn) [compound 69, N-(5-hydroxyadamantane-2-yl)-2-methyl-2-(2-fluorophenylsulfonamido)propanamide] | 0.118 | 0.258
CC(C)(NS(=O)(=O)c1ccccc1)C(=O)NC1C2CC3CC1CC(O)(C3)C2 (stereo not drawn) [compound 70] | 0.093 | 0.378
COc1ccc(S(=O)(=O)NC(C)(C)C(=O)NC2C3CC4CC2CC(O)(C4)C3)cc1 (stereo not drawn) [compound 71, N-(5-hydroxyadamantane-2-yl)-2-methyl-2-(4-methoxyphenylsulfonamido)propanamide] | 0.196 | 0.631
CC(C)(NS(=O)(=O)c1ccccc1C(F)(F)F)C(=O)NC1C2CC3CC1CC(O)(C3)C2 (stereo not drawn) [compound 72, N-(5-hydroxyadamantane-2-yl)-2-methyl-2-(2-trifluoromethylphenylsulfonamido)propan amide] | 0.111 | 0.138
CC(C)(NS(=O)(=O)c1cccc(Cl)c1Cl)C(=O)NC1C2CC3CC1CC(O)(C3)C2 (stereo not drawn) [compound 73, N-(5-hydroxyadamantane-2-yl)-2-methyl-2-(2,3-dichlorophenylsulfonamido)propanamide] | 0.017 | 0.042
